According to patent US10982192B2, “Method for the induction of arterial-type of hemogenic endothelium from hPSCS” (Wisconsin Alumni Research Foundation, priority 2017, dated 2021):

Columns and labels:
D4 CD31+ HE cells = experiment: CellTracer proliferation assay and EdU cell cycle analysis; type: cell-based, human
Experimental: D4 CD31^+ HE cells were incubated in PBS with CellTracer (1 μg/ml, Thermo) for 20 minutes at 37° C. After washing, the cells were plated on collagen IV-coated plates with either Fc-IgG or DLL1-Fc and the modified Day 4 medium, as described above, at a higher density of 30,000 to 40,000 cells/cm^2 due to toxicity from the CellTracer. Aliquots of the purified cells were analyzed by flow cytometry to determine the purity of the MACS cells and establish the Generation 0 peak for the proliferation assay. Secondary cultures were collected every day after plating for flow cytometry analysis, and calibration beads were used to generate compatible CellTracer results. After D4+4, FlowJo™ Analysis software was used to concatenate the data from each day. The average number of cell divisions was calculated based on the number of cells on each day (FIG. 1F) and applied to the proliferation platform algorithm in FlowJo™ to determine the specific generation gates. Those peaks were re-applied to individual sets of data to determine the percentage of each generation within the hematoendothelial populations. For cell cycle analysis, D4+4 cells were incubated in culture medium with EdU (10 μM, Thermo Fisher) for 2 hours and stained with CD43 and CD144 antibodies for 20 min. […]

HES1 = experiment: qPCR of NOTCH1 target gene HES1 in D4 HE; type: cell-based, human; details: D4 HE cultured for 12 hours (D4+0.5)
Experimental: (§1) Human pluripotent stem cells, H1 hESC line, DF19-9-7T fibroblast-hiPSC line, IISH2i-BM9 bone marrow-iPSC line, and IISH3i-CB6 cord blood-iPSC line, were maintained and passaged in chemically defined conditions using vitronectin and E8 medium, as previously described^85. The human PSCs were differentiated into hematoendothelial lineages using a modified protocol previously described^35. On Day −1, hPSCs were singularized and plated on collagen IV-coated plates (0.5 μg/cm^2) at a cell density of 7,500 cells/cm^2 in E8 medium supplemented with 10 uM Rock inhibitor (Y-27632, Cayman Chemicals). On Day 0, the medium was changed to IF9S medium supplemented with BMP4, FGF2 (50 ng/ml), Activin A (15 ng/ml, Peprotech), LiCl (2 mM, Sigma), and ROCK inhibitor (0.5 μM, Cayman Chemicals) and cultured in hypoxia (5% O2, 5% CO2). […] A sample of the purified cells was analyzed by flow cytometry, and experiments were continued only if the purity of the HE was over 95% CD144^+. […]
Cells were differentiated for the respective days and sorted on a FACS Aria II. RNA was collected using RNA MiniPrep Plus (Invitrogen) and quantified on a NanoDrop (GE Healthcare). […] The reactions were run on a Mastercycler RealPlex Thermal Cycler (Eppendorf) and the expression levels were calculated by minimal cycle threshold values (Ct) normalized to the reference expression of RPL13a. […]

D5 HE:DLL4+ = experiment: Blood production from D5 HE:DLL4+ in OP9 co-culture with NOTCH inhibition; type: cell-based, human; details: treatment from D5 to D5+2, D5+2 to D5+4, and D5 to D5+4; 20 μM
Experimental: (§2) OP9, OP9-DLL4, and the inducible OP9-iDLL4 (made in-house) cell lines were maintained in αMEM with 20% FBS (GE) on gelatin-coated plates in normoxia as previously described^86. Using TrypLE (Thermo), OP9 were passaged at a 1:8 ratio every 3-4 days when they were 80% confluent. One day before co-culture with differentiated human HE cells, OP9 lines were treated with mitomycin C (1 mg/ml) for 2 hours and then plated at a density of 12,500 cells/cm^2 as previously described^87. D4 HE cells or D5 CD144^+ subsets were plated onto OP9 lines at a density between 1000 to 2000 cells/cm^2 in medium containing αMEM with 10% FBS (GE), TPO, SCF, IL-6 (50 ng/ml), IL-3, and FLT3L (10 ng/ml). Medium was changed after 24 hours, and extra medium added 2 days later. Experiments conducted with DAPT were treated with 20 μM, while corresponding control conditions had DMSO added at a 1:500 dilution.

D5 HE:DLL4- = experiment: Blood production from D5 HE:DLL4- in OP9 co-culture with NOTCH inhibition; type: cell-based, human; details: DAPT 20 μM
Experimental: as §2

[1] = tested on: CD34+CD43-CD73- HE progenitors; details: NOTCH inhibition; cited from earlier work
NOTCH1 = experiment: Western blot of activated cleaved NOTCH1 (NOTCH:ICD) in D4 HE; type: cell-based, human; details: D4 HE cultured for 24 h (D4+1); DAPT 10 μM or immobilized DLL1-Fc
Experimental: as §1, with “CO2). On day 2, the medium was changed to IF9S medium supplemented with FGF2, VEGF (50 ng/ml, Peprotech), and 2.5 μM TGFβ inhibitor (SB-431542, Cayman Chemicals). On day 4, cell cultures were singularized and stained with anti-CD31 microbeads (Miltenyi) for 15 minutes. Cells were washed and HE were purified using CD31 antibody and MACS LS columns (Miltenyi).” for “CO2).”

Runx1+23 enhancer = experiment: Runx1+23-eGFP reporter flow cytometry; type: cell-based, human; details: D4 HE cultured with DAPT or on DLL1-Fc
Experimental: Runx1+23 enhancer fragment^33 was amplified by PCR and subsequently cloned into the AAVS-SA-2A-PURO vector (gift from Gadue Lab, The Children's Hospital of Philadelphia). Human ESCs were transfected with zinc-finger nuclease vectors and later puromycin-resistant individual cells were clonally expanded and on-targeted clones were selected, as previously described^38. Southern Blot (SB) analysis was performed by DIG-labeling hybridization (Roche). Briefly, 10 μg genomic DNA was digested using a EcoRV restriction enzyme for overnight, separated on a 0.7% agarose gel for 6 hours, transferred to a nylon membrane (Amersham), and incubated with DIG-labeling probes. The external probe is a DIG-labeled 600 nucleotide fragment that binds to the EcoRV-digested fragment of the 5′ external region. The internal probe is a DIG-labeled 700 nucleotide fragment that binds to the EcoRV-digested fragment of the of the eGFP region.
Flow Cytometry was conducted using the MACSQuant 10 (Miltenyi Biotech). FACS-sorting was conducted on a FACS Aria II (BD) as previously described^26, 35, 86.

D4 HE = experiment: Single-cell deposition assay for endothelial-to-hematopoietic transition on OP9-iDLL4; type: cell-based, human; details: OP9-iDLL4 without DOX-pretreatment, DAPT 20 μM, compared to control condition
Experimental: One day before single-cell deposition, the OP9-iDLL4 cell line was treated with mitomycin C as described above, and passaged into 96-well plates at a density of 12,500 cells/cm2. OP9-iDLL4 used for the NOTCH activation condition was incubated with doxycycline for 24 hours after passaging into 96-well plates. On the day of single-cell sorting, OP9-iDLL4 medium was changed to αMEM with 10% FBS (GE), TPO, SCF, IL-6 (50 ng/ml), IL-3, FLT3L (10 ng/ml), and DMSO (1:500) for the control, and NOTCH activation conditions, or DAPT (20 μM) for the NOTCH inhibition condition. Day 4 differentiated human pluripotent stem cells were singularized, stained for CD309-PE and CD144-APC (Miltenyi Biotech), and single-cell sorted into individual wells of the 96-well plates using a FACS Aria II. To exclude possibility of doublets, we used a low density (less than 1 million cells/ml) cells suspension, sorting speed less than 1000 cellular events/per second and stringent gating on single cells using both FSC-A vs FSC-H and SSC-A vs SSC-H. One day after sorting, the medium was changed to fresh medium without DMSO or DAPT, and extra medium was added every 3 days. […]

[2] = tested on: D4 CD144+CD43-CD73- HE cells; experiment: Flow cytometry of CD144/CD43 in secondary culture of D4 HE (hematopoiesis/EHT), serum- and feeder-free; type: cell-based, human
Experimental: Human pluripotent stem cells, H1 hESC line, DF19-9-7T fibroblast-hiPSC line, IISH2i-BM9 bone marrow-iPSC line, and IISH3i-CB6 cord blood-iPSC line, were maintained and passaged in chemically defined conditions using vitronectin and E8 medium, as previously described^85. The human PSCs were differentiated into hematoendothelial lineages using a modified protocol previously described^35. On Day −1, hPSCs were singularized and plated on collagen IV-coated plates (0.5 μg/cm^2) at a cell density of 7,500 cells/cm^2 in E8 medium supplemented with 10 uM Rock inhibitor (Y-27632, Cayman Chemicals). On Day 0, the medium was changed to IF9S medium supplemented with BMP4, FGF2 (50 ng/ml), Activin A (15 ng/ml, Peprotech), LiCl (2 mM, Sigma), and ROCK inhibitor (0.5 μM, Cayman Chemicals) and cultured in hypoxia (5% O2, 5% CO2). On day 2, the medium was changed to IF9S medium supplemented with FGF2, VEGF (50 ng/ml, Peprotech), and 2.5 μM TGFβ inhibitor (SB-431542, Cayman Chemicals). On day 4, cell cultures were singularized and stained with anti-CD31 microbeads (Miltenyi) for 15 minutes. Cells were washed and HE were purified using CD31 antibody and MACS LS columns (Miltenyi). Purified CD31^+ HE were then plated at a density of 20,000 to 30,000 cells/cm^2 on collagen IV-coated plates (1 μg/cm^2) that were either co-coated with IgG-Fc fragments or human DLL1-Fc (made in-house), in IF9S medium supplemented with FGF2, VEGF, EGF, IGF-I, IGF-II, TPO, IL-6 (50 ng/ml), SCF (20 ng/ml), IL-3, FLT3L (10 ng/ml, Peprotech), and ROCK inhibitor (5 μM, Cayman Chemicals), and where specified, DMSO (1:1000, Fisher Scientific) or DAPT (10 μM, Cayman Chemicals), and cultured in normoxia (20% O2, 5% CO2). In some experiments, HE was cultured on plates co-coated with human JAG1-Fc (R&D Systems). A sample of the purified cells was analyzed by flow cytometry, and experiments were continued only if the purity of the HE was over 95% CD144^+. On Day 4+1, the medium was replaced with fresh medium containing the same supplements without ROCK inhibitor. […]

D4 HE cells = experiment: Annexin V flow cytometric analysis of apoptosis; type: cell-based, human; details: D4+4
[3] = tested on: cells collected from D4+4 HE cultures; experiment: Hematopoietic colony forming unit assay; type: cell-based, human; details: cells from D4+4 HE cultures in methocellulose, vs control
Experimental: Hematopoietic colony forming unit assay was conducted in serum-containing H4436 Methocult (Stem Cell Technologies) as previously described^26, 35.

D4+4 CD43+ cells = experiment: T-cell differentiation of D4+4 cultures on OP9-DLL4; type: cell-based, human
Experimental: Total D4+4 cultures were singularized, strained, and cultured in T-cell differentiation conditions on OP9-DLL4 for 3 weeks as described^35. For D5+4 cultures, only the floating hematopoietic cells were collected and cultured in T-cell differentiation conditions. Limiting Dilution Assays were conducted with the floating cells collected from D5+4 cultures (HE:DLL4^− on OP9+DAPT, OP9+DMSO, and OP9-DLL4, and HE:DLL4^+ on OP9-DLL4). Row A of a 96-well plate received 500 cells/well, and each subsequent row afterwards had half the previous row (Row B contained 250, Row C contained 125 . . . Row H contained 3-4 cells). The wells were scored 2 weeks later by eye and flow-cytometry for CD5^+CD7^+ containing cells. Positive threshold was set at 167 CD5^+CD7^+ cells/well. Extreme limiting dilution analysis was conducted using the previously established algorithm^88

C[C@H](NC(=O)Cc1cc(F)cc(F)c1)C(=O)N[C@H](C(=O)OC(C)(C)C)c1ccccc1 [DAPT]
cycling CD43+ cells (EdU) (D4 CD31+ HE cells; D4+4): no differences
distribution of CD43+ cells within each generation (D4 CD31+ HE cells; D4+4, treated through D4+4): no significant shift
HES1 mRNA expression (HES1): decreased
hematopoietic activity of the HE:DLL4+ population (D5 HE:DLL4+): significantly inhibited hematopoietic activity
hematopoietic activity of HE:DLL4- cultures (D5 HE:DLL4-): no effect on hematopoietic activity
production of CD45+ cells [1]: reduces production of CD45^+ cells
activated cleaved form of NOTCH1 (NOTCH1): decrease
Runx1+23 enhancer activity (eGFP) (Runx1+23 enhancer): decreases
ratio of hematopoietic/endothelial colonies (D4 HE): markedly decreased
CD43+ HPs ([2]; each day from D4+1 to D4+4): decreased CD43+ HPs
CD43hi CD144- cells on D4+2 through D4+4 ([2]; treated for 24-hours from D4 to D4+1): significant drop
hematopoiesis ([2]; treatment throughout (D4 to D4+4)): more profoundly decreased hematopoiesis
apoptosis of blood cells post-transition (D4 HE cells): none of the conditions affected apoptosis
total number of colonies [3]: significantly lower
T-cell potential of HPs (D4+4 CD43+ cells): no T-cell potential
